# Test results from PubChem BioAssay (NCI).
#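 Exposure lasted 48 hours, with cells grown in 96-well plates and compounds tested at five concentrations. TGI denotes the concentration required for complete inhibition of growth.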
# Key:
# Assay in all cases: inhibition of tumour cell growth, NCI panel, 48 h
# NCI-H23 lung = test system: NCI-H23 lung
# TK-10 renal = test system: TK-10 renal
# HL-60(TB) leukemia = test system: HL-60(TB) leukemia
# U251 CNS = test system: U251 CNS
# CCRF-CEM leukemia = test system: CCRF-CEM leukemia
# UO-31 renal = test system: UO-31 renal
# BT-549 breast = test system: BT-549 breast
# HCT-15 colon = test system: HCT-15 colon
# MDA-MB-231 breast = test system: MDA-MB-231 breast
# MDA-N = test system: MDA-N
# 786-0 renal = test system: 786-0 renal
# MOLT-4 leukemia = test system: MOLT-4 leukemia
# HOP-92 NSCLC = test system: HOP-92 NSCLC
# SF-268 CNS = test system: SF-268 CNS
# UACC-62 melanoma = test system: UACC-62 melanoma
# EKVX NSCLC = test system: EKVX NSCLC
# SW-620 colon = test system: SW-620 colon
# SN12C renal = test system: SN12C renal
# SK-MEL-2 melanoma = test system: SK-MEL-2 melanoma
# NCI-H522 lung = test system: NCI-H522 lung
# HCC-2998 colon = test system: HCC-2998 colon
# SR leukemia = test system: SR leukemia
# RPMI-8226 leukemia = test system: RPMI-8226 leukemia
# SNB-75 CNS = test system: SNB-75 CNS
# MDA-MB-435 = test system: MDA-MB-435
# SK-OV-3 ovarian = test system: SK-OV-3 ovarian
# NCI/ADR-RES ovarian = test system: NCI/ADR-RES ovarian
# NCI-H226 lung = test system: NCI-H226 lung
# HOP-62 NSCLC = test system: HOP-62 NSCLC
# COLO 205 colon = test system: COLO 205 colon
# HCT-116 colon = test system: HCT-116 colon
# CAKI-1 renal = test system: CAKI-1 renal
# OVCAR-3 ovarian = test system: OVCAR-3 ovarian
# ACHN renal = test system: ACHN renal
# OVCAR-8 ovarian = test system: OVCAR-8 ovarian
# MALME-3M melanoma = test system: MALME-3M melanoma
# M14 melanoma = test system: M14 melanoma
# HT29 colon = test system: HT29 colon
# IGROV1 ovarian = test system: IGROV1 ovarian
# DU-145 prostate = test system: DU-145 prostate
# A498 renal = test system: A498 renal
# OVCAR-4 ovarian = test system: OVCAR-4 ovarian
# PC-3 prostate = test system: PC-3 prostate
# HS 578T breast = test system: HS 578T breast
# RXF 393 renal = test system: RXF 393 renal
# SF-295 CNS = test system: SF-295 CNS
# SK-MEL-28 melanoma = test system: SK-MEL-28 melanoma
# T-47D breast = test system: T-47D breast
# NCI-H460 lung = test system: NCI-H460 lung
# SNB-19 CNS = test system: SNB-19 CNS
# KM12 colon = test system: KM12 colon
# SK-MEL-5 melanoma = test system: SK-MEL-5 melanoma
# OVCAR-5 ovarian = test system: OVCAR-5 ovarian
# MCF7 breast = test system: MCF7 breast
# A549 NSCLC = test system: A549 NSCLC
# SF-539 CNS = test system: SF-539 CNS
# UACC-257 melanoma = test system: UACC-257 melanoma
# K-562 leukemia = test system: K-562 leukemia
compound,measurement,setting,value
O=C(N/N=C\c1ccc([N+](=O)[O-])s1)c1ccncc1,TGI,NCI-H23 lung,38.4 µM
same,TGI,TK-10 renal,> 51.7 µM
same,TGI,HL-60(TB) leukemia,> 22.7 µM
same,TGI,U251 CNS,> 63.8 µM
same,TGI,CCRF-CEM leukemia,> 29.1 µM
same,TGI,UO-31 renal,> 38.5 µM
same,TGI,BT-549 breast,27.2 µM
same,TGI,HCT-15 colon,> 44 µM
same,TGI,MDA-MB-231 breast,> 89.1 µM
same,TGI,MDA-N,> 55.8 µM
same,TGI,786-0 renal,48.8 µM
same,TGI,MOLT-4 leukemia,> 63.2 µM
same,TGI,HOP-92 NSCLC,32.8 µM
same,TGI,SF-268 CNS,55 µM
same,TGI,UACC-62 melanoma,15.7 µM
same,TGI,EKVX NSCLC,45.6 µM
same,TGI,SW-620 colon,> 45.4 µM
same,TGI,SN12C renal,26.8 µM
same,TGI,SK-MEL-2 melanoma,68.5 µM
same,TGI,NCI-H522 lung,19.7 µM
same,TGI,HCC-2998 colon,24 µM
same,TGI,SR leukemia,12.2 µM
same,TGI,RPMI-8226 leukemia,> 41.3 µM
same,TGI,SNB-75 CNS,> 100 µM
same,TGI,MDA-MB-435,> 55 µM
same,TGI,SK-OV-3 ovarian,> 100 µM
same,TGI,NCI/ADR-RES ovarian,> 91.1 µM
same,TGI,NCI-H226 lung,17.7 µM
same,TGI,HOP-62 NSCLC,35.3 µM
same,TGI,COLO 205 colon,9.22 µM
same,TGI,HCT-116 colon,19.5 µM
same,TGI,CAKI-1 renal,49.2 µM
same,TGI,OVCAR-3 ovarian,8.06 µM
same,TGI,ACHN renal,> 60.8 µM
same,TGI,OVCAR-8 ovarian,49.2 µM
same,TGI,MALME-3M melanoma,23.3 µM
same,TGI,M14 melanoma,25.2 µM
same,TGI,HT29 colon,15.9 µM
same,TGI,IGROV1 ovarian,26 µM
same,TGI,DU-145 prostate,79.3 µM
same,TGI,A498 renal,53 µM
same,TGI,OVCAR-4 ovarian,30.2 µM
same,TGI,PC-3 prostate,> 76.8 µM
same,TGI,HS 578T breast,50.4 µM
same,TGI,RXF 393 renal,56.6 µM
same,TGI,SF-295 CNS,44.5 µM
same,TGI,SK-MEL-28 melanoma,> 64.9 µM
same,TGI,T-47D breast,48.4 µM
same,TGI,NCI-H460 lung,33.1 µM
same,TGI,SNB-19 CNS,> 77.4 µM
same,TGI,KM12 colon,26.8 µM
same,TGI,SK-MEL-5 melanoma,12.8 µM
same,TGI,OVCAR-5 ovarian,> 66.9 µM
same,TGI,MCF7 breast,9.96 µM
same,TGI,A549 NSCLC,> 66.3 µM
same,TGI,SF-539 CNS,43.3 µM
same,TGI,UACC-257 melanoma,31.8 µM
O=S(=O)(O)c1ccc2c(N=Nc3ccc(Sc4ccc(N=Nc5c(O)ccc6cc(S(=O)(=O)O)ccc56)cc4)cc3)c(O)ccc2c1,TGI,NCI-H23 lung,> 100 µM
same,TGI,TK-10 renal,> 100 µM
same,TGI,HL-60(TB) leukemia,> 100 µM
same,TGI,U251 CNS,> 100 µM
same,TGI,CCRF-CEM leukemia,> 100 µM
same,TGI,UO-31 renal,> 100 µM
same,TGI,BT-549 breast,> 100 µM
same,TGI,HCT-15 colon,> 100 µM
same,TGI,MDA-MB-231 breast,> 100 µM
same,TGI,MDA-N,> 100 µM
same,TGI,786-0 renal,> 100 µM
same,TGI,MOLT-4 leukemia,> 100 µM
same,TGI,HOP-92 NSCLC,> 100 µM
same,TGI,SF-268 CNS,> 100 µM
same,TGI,UACC-62 melanoma,> 100 µM
same,TGI,EKVX NSCLC,> 100 µM
same,TGI,SW-620 colon,> 100 µM
same,TGI,SN12C renal,> 100 µM
same,TGI,SK-MEL-2 melanoma,> 100 µM
same,TGI,NCI-H522 lung,> 100 µM
same,TGI,HCC-2998 colon,> 100 µM
same,TGI,SR leukemia,> 100 µM
same,TGI,RPMI-8226 leukemia,> 100 µM
same,TGI,MDA-MB-435,> 100 µM
same,TGI,SK-OV-3 ovarian,> 100 µM
same,TGI,NCI/ADR-RES ovarian,> 100 µM
same,TGI,NCI-H226 lung,> 100 µM
same,TGI,HOP-62 NSCLC,> 100 µM
same,TGI,COLO 205 colon,> 100 µM
same,TGI,HCT-116 colon,> 100 µM
same,TGI,CAKI-1 renal,> 100 µM
same,TGI,OVCAR-3 ovarian,> 100 µM
same,TGI,ACHN renal,> 100 µM
same,TGI,OVCAR-8 ovarian,> 100 µM
same,TGI,MALME-3M melanoma,> 100 µM
same,TGI,M14 melanoma,> 100 µM
same,TGI,HT29 colon,> 100 µM
same,TGI,IGROV1 ovarian,> 100 µM
same,TGI,DU-145 prostate,> 100 µM
same,TGI,OVCAR-4 ovarian,> 100 µM
same,TGI,PC-3 prostate,> 100 µM
same,TGI,HS 578T breast,> 100 µM
same,TGI,RXF 393 renal,> 100 µM
same,TGI,SF-295 CNS,> 100 µM
same,TGI,SK-MEL-28 melanoma,> 100 µM
same,TGI,T-47D breast,> 100 µM
same,TGI,NCI-H460 lung,> 100 µM
same,TGI,SNB-19 CNS,> 100 µM
same,TGI,KM12 colon,> 100 µM
same,TGI,SK-MEL-5 melanoma,> 100 µM
same,TGI,OVCAR-5 ovarian,> 100 µM
same,TGI,MCF7 breast,> 100 µM
same,TGI,K-562 leukemia,> 100 µM
same,TGI,A549 NSCLC,> 100 µM
same,TGI,SF-539 CNS,> 100 µM
same,TGI,UACC-257 melanoma,> 100 µM
